Laboratory results reported in US20110243855A1, “METHOD AND IMAGING MEDIUM FOR USE IN THE METHOD” (priority 2007, published 2011).

Assays:
[1] = Solid state polarisation after DNP, followed by solid state 13C-NMR; type: physicochemical; conditions: DNP at 1.2 K, 3.35 T, microwave 93.89 GHz, trityl radical and Gd-chelate
Description: The level of polarisation may for instance be determined by solid state ^13C-NMR measurements in solid hyperpolarised ^13C-acetate, e.g. solid hyperpolarised ^13C-acetate obtained by dynamic nuclear polarisation (DNP) of ^13C-acetate. The solid state ^13C-NMR measurement preferably consists of a simple pulse-acquire NMR sequence using a low flip angle. The signal intensity of the hyperpolarised ^13C-acetate in the NMR spectrum is compared with signal intensity of ^13C-acetate in a NMR spectrum acquired before the polarisation process. The level of polarisation is then calculated from the ratio of the signal intensities of before and after polarisation.
The probe is inserted into the probe-retaining container, submerged in the liquid helium and irradiated with microwaves. The microwave frequency may be determined from the EPR line of the DNP agent, which depends on the magnetic field of the magnet as 28.0 GHz/T. The optimal microwave frequency may be determined by adjusting the frequency for maximal NMR signal. Preferably, the optimal microwave frequency is in the about 94 GHz for a magnet charged to 3.35 T, 110 GHz for a magnet charged to 4 T, 140 GHz for a magnet charged to 5 T and 200 GHz for a magnet charged to 7 T. The power may be chosen between 50 and 200 mW, dependent on the probe size. The level of polarisation may be monitored as earlier described by for instance acquiring solid state ^13C-NMR signals of the probe during microwave irradiation. Generally, a saturation curve is obtained in a graph showing NMR signal vs. time. […] A solid state ^13C-NMR measurement suitably consists of a simple pulse-acquire NMR sequence using a low flip angle. […] The polarisation is then calculated from the ratio of the signal intensities before and after DNP.
To a micro test tube was added sodium ^13C1-acetate (Aldrich, 24.9 mg, 0.30 mmol) and 16 μl water. […] Polarisation was followed by solid state ^13C-NMR and the solid state polarisation was determined to be more than 20%. […]

[2] = Liquid state polarisation of the dissolved imaging medium by liquid state 13C-NMR; type: physicochemical; conditions: for liquid state polarisation: liquid state 13C-NMR at 400 MHz, after 75 min DNP, dissolved in phosphate buffer pH 7, 50 mM
Protocol: In a similar way, the level of polarisation for dissolved hyperpolarised ^13C-acetate may be determined by liquid state NMR measurements. Again the signal intensity of the dissolved hyperpolarised ^13C-acetate is compared with the signal intensity of the dissolved ^13C-acetate before polarisation. The level of polarisation is then calculated from the ratio of the signal intensities of ^13C-acetate before and after polarisation. Hyperpolarisation of NMR active ^13C-nuclei may be achieved by different methods which are for instance described in described in WO-A-98/30918, WO-A-99/24080 and WO-A-99/35508, and which all are incorporated herein by reference and hyperpolarisation methods known in the art are polarisation transfer from a noble gas, “brute force”, spin refrigeration, the parahydrogen method and dynamic nuclear polarisation (DNP).
(§1) After 75 minutes of dynamic nuclear polarisation, the obtained frozen polarised composition was dissolved in 6 ml phosphate buffer (20 mM, pH 7, 100 mg/l EDTA, 0.9% NaCl). The pH of the final solution containing the dissolved composition was 7.3±0.1. The sodium ^13C1-acetate concentration in said final solution was 50 mM.
Liquid state polarisation was determined by liquid state ^13C-NMR at 400 MHz to be 19%.
as §1, with “TRIS-^13C1-acetate-d3” for “sodium ^13C1-acetate”
Liquid state polarisation was determined by liquid state ^13C-NMR at 400 MHz to be 32%.

mouse liver = assay: In vivo 13C-MR spectroscopy in mice (liver), conversion of hyperpolarised 13C-acetate to 13C-acetyl-CoA and 13C-acetylcarnitine; set-up: species or system C57Bl/6 mouse; conditions: 200 μl of approx. 50 mM, spectrum 10 s after injection, 90 degree pulse, n=2 (FIG. 2, 3)
Protocol: (§2) 200 μl of an imaging medium which was prepared as described in Example 3a was injected into a C57Bl/6 mouse over a time period of 6 s. The TRIS-^13C1-acetate concentration in said imaging medium was approx. 50 mM. In both experiments (n=2) a ^13C-surface coil (diameter 12 mm) was placed over the mouse liver and ^13C-MR spectroscopy was carried out in a 2.4 T Bruker spectrometer. A spectrum was acquired 10 s after the imaging medium had been injected with a 90 degree RF pulse. […] The ratio of ^13C1-acetylcarnitine to ^13C1-acetyl-CoA was roughly 3 times lower in the heart than in the liver, see Example 5.

mouse myocardium = assay: In vivo 13C-MR spectroscopy in mice (heart), conversion of hyperpolarised 13C-acetate to 13C-acetyl-CoA and 13C-acetylcarnitine; set-up: species or system C57Bl/6 mouse
Protocol: 200 μl of an imaging medium which was prepared as described in Example 3a was injected into a C57Bl/6 mouse over a time period of 6 s. The TRIS-^13C1-acetate concentration in said imaging medium was 75 mM and the polarisation was 20% at the time of injection. A ^13C-surface coil (diameter 12 mm) was placed over the mouse myocardium. A rat ^1H-body coil was used for anatomical reference images and localised shimming. ^13C-MR spectroscopy was carried out with a 2.4 T Bruker spectrometer. A dynamic set of ^13C-MR spectra (in total 30) was acquired every 3 s with a 30 degree RF pulse. From this experiment a ^13C1-acetylcarnitine signal build-up over the time of the experiment was clearly seen (FIG. 1).
as §2, with “mouse myocardium” for “mouse liver”, “times higher” for “times lower”, “Example 6.” for “Example 5.”

Row | solid state polarisation [1] | liquid state polarisation [2] | identification of 13C1-acetyl-CoA and 13C1-acetylcarnitine (mouse liver) | polarisation at the time of injection ([2]; imaging medium 75 mM, at the time of injection into mouse) | 13C1-acetylcarnitine signal build-up over the time of the experiment (mouse myocardium; 200 μl of 75 mM injected over 6 s, 30 spectra every 3 s, 30 degree pulse, 2.4 T (FIG. 1)) | identification of 13C1-acetyl-CoA and 13C1-acetylcarnitine (mouse myocardium; 200 μl of approx. 50 mM, spectrum 10 s after injection, 90 degree pulse, n=2 (FIG. 2, 3)) | SMILES
1 | more than 20% | 19% |  |  |  |  | C[13C](=O)[O-].[Na+] [sodium ^13C1-acetate]
2 | more than 25% |  | could be identified | 20% | clearly seen | could be identified | C[13C](=O)O.NC(CO)(CO)CO [TRIS-^13C1-acetate]
3 | more than 25% | 32% |  |  |  |  | NC(CO)(CO)CO.[2H]C([2H])([2H])[13C](=O)O [TRIS-^13C1-acetate-d3]
